Measured values from patent US4826994A, “Production of substituted 1,3,4,9-tetrahydropyrano(3,4-B)indole-1-acetic acids” (American Home Products Corporation, priority 1988, dated 1989).

Legend:
[1] = Preventative Adjuvant Edema (acute anti-inflammatory effect in rats); format: in vivo, Male Sprague Dawley rats; parameters: inhibition in vivo: dose or concentration left out as unconfirmed; conditions: for ED50 / inhibition in vivo / inhibition in vivo at 25 mg/kg: Rattus norvegicus, po, 72 h; for ED50: value in parentheses; for inhibition in vivo / inhibition in vivo at 25 mg/kg: read-out: Preventative Adjuvant Edema, percent inhibition
Procedure: This test is a primary screen for anti-inflammatory drugs.
Male Sprague Dawley rats (180-200 g) are used. The animals have free access to water but food is withdrawn 18 hours before testing.
Drug Preparations and Administration:
Freund's complete adjuvant is prepared by suspending 5 mg of killed and dried Mycobacterium butyricum (Difco) in 1 mL mineral oil. The test compounds are dissolved, of suspended in 0.5% Tween 80 in distilled water according to their solubility. For primary screening all drugs are administered by gastric lavage at the arbitrary dosage of 25 mg/kg, p.o. in a volume of 0.5 mL/100 g body weight to groups of 10 animals.
The method is essentially that described by Wax et al, J. Pharmacol. Exp. Ther., 192, 166-171 (1975). Groups of rats are injected intradermally in the left hind paw with 0.1 mL of Freund's complete adjuvant. The test compound or vehicle is administered immediately before the adjuvant, 24 hours and 48 hours after the adjuvant (days 0, 1 and 2). The injected hind paw volume is measured before the injection of adjuvant and 24 hrs. after the last drug administration (day 3) by means of a plethysmometer (Buxco Electronics Inc.). The difference between the hind paw volume on day 0 and day 3 represents the edema volume. Etodolac (25 mg/kg, p.o.) is included as a positive control.
The mean edema volume (expressed as mL±SEM) is calculated for each group and the percentage protection conferred by the drug is calculated: [formula] where c is the mean edema volume for the vehicle-treated (0.5% Tween 80 in distilled water) controls and t is the mean edema volume for the drug treated group.

[2] = Drug Effects on Phenylbenzoquinone-induced Writhing in Mice; format: in vivo, Male Swiss albino mice; conditions: Mus musculus, po, value in parentheses, read-out: Phenylquinone Writhing in Mice, ED50
Procedure: A further test used to determine the utility of the compounds of the present invention is designated: Drug Effects on Phenylbenzoquinone-induced Writhing in Mice
The objective of this test is to determine the ability of test drugs to inhibit the nociceptive (pain) response of mice injected with a chemical irritant. This test is a primary screen for both peripheral and centrally acting analgesic drugs.
Male Swiss albino mice (15-25 g). The animals are fasted for 18 hours prior to use but have free access to water.
(§1) Drug Preparation and Administration:
Drugs are dissolved or suspended according to their solubility in 0.5% Tween 80 in distilled water. They are administered by gastric gavage in a volume of 5 mL/kg. For primary screening all drugs are administered at the arbitrary dosage of 25 mg/kg, p.o. to a group of 10 mice.
A modification of the method of Siegmund et al, Proc. Soc. Exp. Biol. Med., 95, 729-731 (1957) is used. Groups of 5 mice are dosed with the test compound or vehicle control. Sixty minutes later the animals are injected i.p. with 0.3 mL/20 g body weight of a 0.02% solution of phenylbenzoquinone (PBQ; 2-phenyl-1,4-benzoquinone) and placed in individual observation boxes. The number of writhing or abdominal squirming movements made by each mouse during the following 15 min. period is counted. The experiment is repeated with another group of 5 mice and the mean number of writhes per mouse for a group of 10 mice is calculated.
Drug treated and vehicle-treated control groups are compared and the percentage protection conferred by the drug is calculated: [formula] where c=mean number of writhes in the control group where t=mean number of writhes in the test drug group

[3] = Randall Selitto Test in the Rat (pain threshold in inflamed paw); format: in vivo, Male Sprague Dawley rats; conditions: rats; for ED50: Rattus norvegicus, po, 1 hour after dosing, value in parentheses, read-out: Randall Selitto Test in the Rat, ED50 (dose which causes analgesia in 50% of the animals)
Source text: An additional test used to determine the utility of the compounds of the present invention is designated: Randall Selitto Test in the Rat
The objective of this test is to assess the potency of peripheral and central acting drugs in inhibiting the reaction of rats to painful stimulation applied to an inflamed paw.
Male Sprague Dawley rats (180-200 g) are used. The animals are fasted overnight prior to drug administration.
as §1
Freund's Complete Adjuvant (FCA) is prepared by suspending 5 mg killed and dried mycobacterium butyricum (Difco) in 1 mL mineral oil. The test compounds are dissolved or suspended in 0.5% Tween 80 in distilled water according to their solubility. They are administered by gastric gavage in a volume of 0.5 mL/100 g body weight to groups of 10 animals.
Ten rats are used per group. The method is essentially that described by Randall and Selitto, Arch. Int. Pharmacodyn. 111, 409 (1957) and the apparatus which is used to apply pressure to the paw (Analgesi-meter for the rat paw, Ugo Basile, Comeria, Italy) is a modification of that described by Gilfoil et al, J. Pharmacol. 142, 1 (1963). The instrument is basically a device which exerts a force that increases at a constant rate. The force is continuously monitored by a pointer moving along a linear scale and is measured in grams. The inflammatory reaction is induced in the left hind paw of rats of injecting 0.1 mL of Freund's adjuvant intradermally. The test compound or vehicle is administered 24 hours after the adjuvant. The pain threshold (vocalization) is determined 1 hour later in the inflamed paw of the treated and control groups.
Presentation of Results and Criteria for Activity:
Each animal which has a reading 1.5 times greater than the mean reading of the control-group will be considered as responsive (having an analgesic effect) to treatment. The number of animals showing an analgesic effect is then determined in each group.
The ED50 (dose which causes analgesia in 50% of the animals) using at least 3 doses is then determined, by the method described in Litchfield and Wilcoxon, J. Pharmacol. Exp. Ther., 96, 99-113 (1949).

[4] = Drug Effects on Phenylbenzoquinone-induced Writhing in Mice; format: in vivo, Male Swiss albino mice; conditions: Mus musculus, po, Tested at 10 mg/kg, p.o., read-out: Phenylquinone Writhing in Mice, percent inhibition

SMILES | ED50 [2] [mg/kg] | inhibition in vivo ([1]; p.o.) [%] | ED50 [3] [mg/kg] | inhibition in vivo at 10 mg/kg [4] [%] | also measured
C=CCC1COC(CC)(CC(=O)O)c2[nH]c3c(CC)c(F)ccc3c21 (single isomer, unassigned) [Example 10] | 7 | – | – | – | ED50 [1]: 7.8 mg/kg; Randall Selitto Test in the Rat, percent inhibition ([3]; Tested at 5 mg/kg, p.o.): 60%
C=CCC1COC(CC)(CC(=O)O)c2[nH]c3c(CCC)cccc3c21 (single isomer, unassigned) [Example 12, 1-ethyl-1,3,4,9-tetrahydro-4-(2-propenyl)-8-propyl-pyrano[3,4-b]indole-1-acetic acid] | 9.5 | 32 | 1 | – | –
C=CCC1COC(CC)(CC(=O)O)c2[nH]c3c(C)c(Cl)ccc3c21 (single isomer, unassigned) [Example 16, 7-chloro-1-ethyl-1,3,4,9-tetrahydro-8-methyl-4-(2-propenyl)-pyrano[3,4-b]indole-1-acetic acid] | 5.5 | – | 0.012 | – | ED50 [1]: 3 mg/kg
CCC1(CC(=O)O)OCC(Cc2ccccc2)c2c1[nH]c1c(Cl)c(Cl)ccc21 (single isomer, unassigned) [Example 18, 7,8-dichloro-1-ethyl-1,3,4,9-tetrahydro-4-(phenylmethyl)-pyrano[3,4-b]indole-1-acetic acid] | 3.2 | – | 0.8 | – | inhibition in vivo at 25 mg/kg ([1]; 25 mg/kg, p.o.): 15%
CCC1(CC(=O)O)OCC(Cc2ccccc2)c2c1[nH]c1c(C)c(Cl)ccc21 (single isomer, unassigned) [Example 19, 7-chloro-1-ethyl-1,3,4,9-tetrahydro-8-methyl-4-(phenylmethyl)-pyrano[3,4-b]indole-1-acetic acid] | 3.3 | – | 1.6 | – | inhibition in vivo at 25 mg/kg ([1]; 25 mg/kg, p.o.): 52%
CCC1(CC(=O)O)OCC(Cc2ccccc2)c2c1[nH]c1c(C)cccc21 (single isomer, unassigned) [Example 22, 1-ethyl-1,3,4,9-tetrahydro-8-methyl-4-(phenylmethyl)-pyrano[3,4-b]indole-1-acetic acid] | 4.7 | – | 0.25 | – | Preventative Adjuvant Edema, percent inhibition ([1]; 25 mg/kg, p.o.): 47%
CCC1(CC(=O)O)OCC(Cc2ccc(Cl)cc2)c2c1[nH]c1ccccc21 (single isomer, unassigned) [Example 42] | – | 18 | – | 24 | –
CCC1(CC(=O)O)OCC(Cc2ccc(F)cc2)c2c1[nH]c1ccccc21 (single isomer, unassigned) [Example 43] | – | 25 | – | 47 | –
CCC1(CC(=O)O)OCC(Cc2cccc(C(F)(F)F)c2)c2c1[nH]c1ccccc21 (single isomer, unassigned) [Example 44] | – | 25 | – | 22 | –
CCC1(CC(=O)O)OCC(Cc2ccc(F)cc2F)c2c1[nH]c1ccccc21 (single isomer, unassigned) [Example 45] | – | 45 | – | 29 | –
CCC1(CC(=O)O)OCC(Cc2ccccc2)c2c1[nH]c1ccccc21 (single isomer, unassigned; isomer a) [Example 1, 1-Ethyl-1,3,4,9-tetrahydro-4-(phenylmethyl)-pyrano[3,4-b]indole-1-acetic Acid (Isomer A)] | 1.9 | – | 0.003 | – | inhibition in vivo at 25 mg/kg ([1]; 25 mg/kg, p.o.): 37%
